Biological target: AtSFH5-Sec14 (Arabidopsis thaliana, UniProt Q8GXC6)
Test: X-ray crystal structure, […] Å
Type: binding
Conditions: central cavity; acyl chains switched relative to L-α-PA complex

Chain of AtSFH5-Sec14 (Q8GXC6 76-365): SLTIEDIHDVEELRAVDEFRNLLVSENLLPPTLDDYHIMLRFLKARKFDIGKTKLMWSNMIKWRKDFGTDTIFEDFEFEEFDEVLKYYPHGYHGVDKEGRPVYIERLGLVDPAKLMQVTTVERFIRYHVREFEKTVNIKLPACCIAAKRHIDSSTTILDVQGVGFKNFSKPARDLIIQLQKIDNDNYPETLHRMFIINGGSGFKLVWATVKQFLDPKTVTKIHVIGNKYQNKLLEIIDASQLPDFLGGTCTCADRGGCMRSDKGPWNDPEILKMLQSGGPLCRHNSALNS

CCCCCCCCCCCCCCCC(=O)OC[C@H](COP(=O)(O)O)OC(=O)CCCCCCCCCCCCCCC [DPPA, 1,2-dipalmitoyl-sn-glycero-3-phosphate]
X-ray crystal structure, 2.1 Å: 7Y10 for AtSFH5-Sec14 in complex with DPPA
